Assay results taken from ChEMBL document CHEMBL1649353, “Spectroscopic characterization and antiproliferative activity on HepG2 human hepatoblastoma cells of flavonoid C-glycosides from Petrorhagia velutina” (2010).
Active and inactive are the calls of the source. No cut-off for these calls is given here.

Tests used:
HepG2 [1] = experiment: Antiproliferative activity against human HepG2 cells at 25 uM after 48 hrs by MTT assay; assay type: functional
HepG2 [2] = experiment: Antiproliferative activity against human HepG2 cells at 6.25 to 50 uM after 48 hrs by MTT assay; assay type: functional, cell-based
HepG2 [3] = experiment: Antiproliferative activity against human HepG2 cells at 6.25 to 50 uM after 24 hrs by MTT assay; assay type: functional, cell-based
HepG2 [4] = experiment: Antiproliferative activity against human HepG2 cells at 6.25 uM after 48 hrs by MTT assay; assay type: functional
HepG2 [5] = experiment: Antiproliferative activity against human HepG2 cells at 6.25 uM after 24 hrs by MTT assay; assay type: functional
HepG2 [6] = experiment: Antiproliferative activity against human HepG2 cells at 25 uM after 24 hrs by MTT assay; assay type: functional
HepG2 [7] = experiment: Antiproliferative activity against human HepG2 cells at 12.5 uM after 48 hrs by MTT assay; assay type: functional

Question: Which Activity (HepG2 [1]) does the source give for `C[C@@H]1O[C@@H](O[C@@H]2[C@@H](O)[C@H](O)[C@@H](CO)O[C@H]2c2c(O)cc3oc(-c4ccc(O)c(O)c4)cc(=O)c3c2O)[C@H](O)[C@H](O)[C@H]1O` here?
Answer: The Activity was 74.9%.

Question: Which Activity (HepG2 [2]) does the source give for `C[C@@H]1O[C@@H](O[C@@H]2[C@@H](O)[C@@H](O)CO[C@H]2c2c(O)cc3oc(-c4ccc(O)c(O)c4)cc(=O)c3c2O)[C@H](O)[C@H](O)[C@H]1O` here?
Answer: The Activity was “Active”.

Question: How did the Activity (HepG2 [3]) turn out when `O=C1C[C@@H](c2ccc(O)cc2)Oc2c1c(O)cc(O[C@@H]1O[C@H](CO)[C@@H](O)[C@H](O)[C@H]1O)c2[C@@H]1OC[C@H](O)[C@H](O)[C@H]1O` was run?
Answer: Its Activity is “inactive”.

Question: Which results are given for `O=c1cc(-c2ccc(O)c(O)c2)oc2cc(O)c([C@@H]3O[C@H](CO)[C@@H](O)[C@H](O)[C@H]3O)c(O)c12` [ISOORIENTIN]?
Answer: Activity (HepG2 [4]): 84%; Activity (HepG2 [5]): 19.6%; Activity (HepG2 [6]): 26.1%; Activity (HepG2 [7]): 92%
